In the oligonucleotide strings, read from the 5' end, every base follows the letter of its sugar. An asterisk marks phosphorothioate; unmarked linkages are phosphodiester. Other units and linkages are bracketed, terminal groups are in braces. A string of capitals states the bases alone. e = 2'-O-(2-methoxyethyl) (MOE); [5mC] = 5-methylcytosine; d = 2'-deoxy (DNA)
What was measured:
Format in all cases: cell-based, human
aP2 = aP2 mRNA expression in adipocytes (real-time PCR); settings: for aP2 mRNA: Table 75
PPARγ = PPARγ mRNA expression in adipocytes (real-time PCR)
Glut4 = Glut4 mRNA expression in adipocytes (real-time PCR)
HSL = HSL mRNA expression in adipocytes (real-time PCR)
adipocytes = experiment: Triglyceride accumulation assay in adipocytes
[1] = differentiating adipocytes transfected with oligomeric compound
[2] = differentiating adipocytes transfected with oligomeric compound, Table 75
[3] = Table 18, differentiating adipocytes, control = treatment with ISIS 342673
[4] = Table 17, differentiating adipocytes, control = treatment with ISIS 342673
[5] = 300 nM, differentiating adipocytes day 10 post-induction, 24 hours after treatment

Substance	aP2 mRNA (aP2; [1])	PPAR gamma mRNA (PPARγ; [2])	GLUT4 mRNA (Glut4; [2])	HSL mRNA (HSL; [2])	TG (triglyceride accumulation) (adipocytes; [2])	also measured
341795 (antisense AACCAAUGUGCAGACUACUGUA; all 2'-MOE, all phosphorothioate, methylation of C and T or U not given here) [compound 341795]	76 percentage of untreated control (UTC)	74 percentage of untreated control (UTC)	55 percentage of untreated control (UTC)	74 percentage of untreated control (UTC)	57 percentage of untreated control (UTC)	
328108 (antisense eA*eA*eA*e[5mC]*eT*eT*eG*eT*eT*eA*eA*eT*eT*eG*eA*e[5mC]*eT*eG*eT*e[5mC]*eA) [compound 328108]	87 percentage of untreated control (UTC)	72 percentage of untreated control (UTC)	65 percentage of untreated control (UTC)	75 percentage of untreated control (UTC)	79 percentage of untreated control (UTC)	AP2 mRNA (aP2; [3]): 83.7 percentage of control; PPAR gamma mRNA (PPARγ; [3]): 84.0 percentage of control; GLUT4 mRNA (Glut4; [3]): 94.9 percentage of control; HSL mRNA (HSL; [3]): 90.1 percentage of control; TG (triglyceride accumulation) (adipocytes; [3]): 89.6 percentage of control
328134 (eA*eA*eT*eT*eG*eG*eA*e[5mC]*eA*eA*eA*eG*eT*eG*e[5mC]*e[5mC]*eT*eT*eT*e[5mC]*eA; anti-miR) [compound 328134]	97 percentage of untreated control (UTC)	86 percentage of untreated control (UTC)	109 percentage of untreated control (UTC)	109 percentage of untreated control (UTC)	107 percentage of untreated control (UTC)	AP2 mRNA (aP2; [4]): 80.1 percentage of control; PPAR gamma mRNA (PPARγ; [4]): 78.4 percentage of control; GLUT4 mRNA (Glut4; [4]): 88.3 percentage of control; HSL mRNA (HSL; [4]): 74.7 percentage of control; TG (triglyceride accumulation) (adipocytes; [4]): 85.7 percentage of control
328130 (antisense eA*e[5mC]*e[5mC]*eT*e[5mC]*eA*eG*eG*eT*eG*eG*eT*eT*eG*eA*eA*eG*eG*eA*eG*eA) [compound 328130]	72 percentage of untreated control (UTC)	77 percentage of untreated control (UTC)	55 percentage of untreated control (UTC)	64 percentage of untreated control (UTC)	91 percentage of untreated control (UTC)	AP2 mRNA (aP2; [4]): 86.6 percentage of control; PPAR gamma mRNA (PPARγ; [4]): 99.4 percentage of control; GLUT4 mRNA (Glut4; [4]): 83.8 percentage of control; HSL mRNA (HSL; [4]): 76.5 percentage of control; TG (triglyceride accumulation) (adipocytes; [4]): 122.4 percentage of control
105990 (antisense AGCAAAAGATCAATCCGTTA; sugars from the 5' end e5 d10 e5, backbone and methylation of C not given here) [compound 105990]						AP2 mRNA (aP2; [5]): 17.9 % UTC; AP2 mRNA (aP2; [4]): 51.6 percentage of control; AP2 mRNA (aP2; [3]): 49.8 percentage of control; PPAR-gamma mRNA (PPARγ; [5]): 43.9 % UTC; PPAR gamma mRNA (PPARγ; [4]): 51.8 percentage of control; PPAR gamma mRNA (PPARγ; [3]): 60.1 percentage of control; GLUT4 mRNA (Glut4; [5]): 11.8 % UTC; GLUT4 mRNA (Glut4; [4]): 59.5 percentage of control; GLUT4 mRNA (Glut4; [3]): 68.1 percentage of control; HSL mRNA (HSL; [5]): 7.4 % UTC; HSL mRNA (HSL; [4]): 49.2 percentage of control; HSL mRNA (HSL; [3]): 52.0 percentage of control; Triglycerides (adipocytes; [5]): 16.6 % UTC; TG (triglyceride accumulation) (adipocytes; [4]): 28.2 percentage of control; TG (triglyceride accumulation) (adipocytes; [3]): 32.8 percentage of control
346906 (ACAGGAUUGAGGGGGGGCCCU; all 2'-MOE, all phosphorothioate, methylation of C and T or U not given here) [compound 346906]	77 percentage of untreated control (UTC)	80 percentage of untreated control (UTC)	70 percentage of untreated control (UTC)	70 percentage of untreated control (UTC)	83 percentage of untreated control (UTC)	
348119 (UCCAUAAAGUAGGAAACACUACA; anti-miR; all 2'-MOE, all phosphorothioate, methylation of C and T or U not given here) [compound 348119]	81 percentage of untreated control (UTC)	90 percentage of untreated control (UTC)	86 percentage of untreated control (UTC)	76 percentage of untreated control (UTC)	91 percentage of untreated control (UTC)	
341798 (antisense GCAUUAUUACUCACGGUACGA; all 2'-MOE, all phosphorothioate, methylation of C and T or U not given here) [compound 341798]	84 percentage of untreated control (UTC)	70 percentage of untreated control (UTC)	55 percentage of untreated control (UTC)	77 percentage of untreated control (UTC)	62 percentage of untreated control (UTC)	
344277 (antisense AAUACAUACUUCUUUACAUUCCA; all 2'-MOE, all phosphorothioate, methylation of C and T or U not given here) [compound 344277]	61 percentage of untreated control (UTC)	68 percentage of untreated control (UTC)	45 percentage of untreated control (UTC)	57 percentage of untreated control (UTC)	75 percentage of untreated control (UTC)	
328340 (eT*eA*eA*eT*eA*dT*dA*dT*dA*dT*dT*dT*d[5mC]*dA*d[5mC]*eT*eA*e[5mC]*eG*e[5mC]) [compound 328340]						AP2 mRNA (aP2; [1]): 85 percentage of untreated control (UTC); PPAR gamma mRNA (PPARγ; [1]): 110 percentage of untreated control (UTC); GLUT4 mRNA (Glut4; [1]): 112 percentage of untreated control (UTC); HSL mRNA (HSL; [1]): 130 percentage of untreated control (UTC); TG (triglyceride accumulation) (adipocytes; [1]): 76 percentage of untreated control (UTC)
328098 (antisense eG*eA*eG*eA*eA*eT*e[5mC]*eA*eA*eT*eA*eG*eG*eG*e[5mC]*eA*eT*eG*e[5mC]*eA*eA) [compound 328098]	23 percentage of untreated control (UTC)	54 percentage of untreated control (UTC)	25 percentage of untreated control (UTC)	28 percentage of untreated control (UTC)	39 percentage of untreated control (UTC)	
346688 (UAGUUGGCAAGUCUAGAACCA; all 2'-MOE, all phosphorothioate, methylation of C and T or U not given here) [compound 346688]	48 percentage of untreated control (UTC)	55 percentage of untreated control (UTC)	12 percentage of untreated control (UTC)	39 percentage of untreated control (UTC)	33 percentage of untreated control (UTC)	

— patent US8178506B2, “Oligomeric compounds and compositions for use in modulation of small non-coding RNAs” (Regulus Therapeutics Inc., priority 2003, dated 2012)
